Marks after values point to notes of the source that are not given here.
System: zebra fish high blood lipid model
Experiment: Quantitative evaluation of blood lipid lowering effect in zebra fish high blood lipid model
Type: in vivo, zebra fish of ALBINO strain
Conditions: 48 hours after treatment; for Blood lipid reducing rate: 0.081 µg/ml (text: 0.08 µg/ml), vs model group
Description: Animal: Zebra fish embryos were propagated by means of natural pair mating. Each mating, 4∼5 pairs of adult were prepared, and in average, each pair of zebra fish produced 200∼300 embryos. At 6th hour post-fertilization (6hpf) and 24hpf, the embryos were cleaned (removing dead embryo) and qualified embryos were selected according to embryo developing stage (Kimmel et al. 1995). At 28°C, embryos were incubated in fish-farming water, which contained 200mg instant soluble sea salt in 1L reverse osmosis water with conductivity of 480-510 µS/cm, pH of 6.9-7.2, hardness of 53.7-71.6 mg/L CaCO3. Feeding was required since 9 days post-fertilization (9dPf) because the embryos could get nutrients from their own yolk sac. After study, tricaine methane sulfonate (TMS) was used to overexpose the embryos in various developmental stages and the zebra fish were anesthetized and sacrificed. Sacrifice procedure was in light of the sacrifice-under-anesthesia regulatory requirement of AVMA (America Veterinary medical Association).
According to results of part A, the blood lipid lowering effect of Danshen extract in three concentrations was evaluated (usually at MNLC, 1/3MNLC and 1/10 MNLC), and 30 zebra fish treated in each concentration.
High-fat food was used to feed juvenile fish of zebra fish of ALBINO strain to induce zebra fish high blood lipid model.
After feeding, the zebra fish high blood lipid model was treated with tested drug for 48 hours.
Positive drug: lovastatin at 0.08 µg/ml.
After being treated with tested drugs, zebra fish were fat stained with fat-specific colorant.
Fifteen zebra fish were randomly selected in each concentration to observe intensity of zebra fish tail blood fat stain, pictured and saved.
Image -Pro Plus 6.0 image analytical software was used to analyze the image. The signal strength of zebra fish tail blood fat stain (S) was calculated and quantitatively analyzed. The statistical results were expressed as X ± SE. […]

## CC[C@H](C)C(=O)O[C@H]1C[C@@H](C)C=C2C=C[C@H](C)[C@H](CC[C@@H]3C[C@@H](O)CC(=O)O3)[C@H]21 [Lovastatin, lovastatin]
  Blood lipid reducing rate: 26.3* %
Listed as lovastatin
  Blood lipid reducing rate: 26.3%
0.081 µg/ml, Mean±SE
  Tail blood lipid IOD: 2142±109
